{
  "source": "patent US7273870B2",
  "about": "“Stabilized difloxacin injectable solution” (Wyeth, priority 2002, dated 2007)",
  "origin": "cited, not measured here",
  "data": [
    {"smiles": "CN1CCN(c2cc3c(cc2F)c(=O)c(C(=O)O)cn3-c2ccc(F)cc2)CC1", "note": "[Difloxacin, 6-fluoro-1-(4-fluorophenyl)-1,4-dihydro-7-(4-methyl-1-piperadinyl) 4-oxo-3-quinolinecarboxylic acid]", "values": [
      {"measurement": "Solubility in water", "result": "not highly soluble in water"}
    ]}
  ]
}
